Assay results published in US20060135769A1, “Farnesyl transferase inhibiting 4-heterocyclyl-quinoline and quinazoline derivatives” (priority 2000, published 2006).

Row | Structure (SMILES) | melting point [°C]
1 | O=c1cc(-n2ccnc2)c2cc(C(c3ccc(Cl)cc3)n3ccnc3)ccc2[nH]1 (centres unmarked) [Example B1, 6-[(4-chlorophenyl)-1H-imidazol-1-ylmethyl]-4-(1H-imidazol-1-yl)-2(1H)-quinolinone] | 242.3
2 | Cn1cncc1C(O)(c1ccc(Cl)cc1)c1ccc2c(c1)c(-c1cccs1)cc(=O)n2C (centres unmarked) [Example B2, 6-[(4-chlorophenyl)hydroxy(1-methyl-1H-imidazol-5-yl)methyl]-1-methyl-4-(2-thienyl)-2(1H)-quinolinone] | > 260
3 | Cn1cncc1C(O)(c1ccc(Cl)cc1)c1ccc2[nH]c(=O)cc(-c3cccnc3)c2c1 (centres unmarked) [Example B3, 6-[(4-chlorophenyl)hydroxy(1-methyl-1H-imidazol-5-yl)methyl]-4-(3-pyridinyl)-2(1H)-quinolinone] | > 250
4 | Cn1cncc1C(O)(c1ccc(Cl)cc1)c1ccc2c(c1)c(CCc1ccc(Cl)s1)cc(=O)n2C (centres unmarked) [Example B10, 6-[(4-chlorophenyl)hydroxy(1-methyl-1H-imidazol-5-yl)methyl]-4-[2-(5-chloro-2-thienyl)ethyl]-1-methyl-2(1H)-quinolinone] | 128
5 | Cn1c(=O)cc(CCc2ccc(Cl)s2)c2cc(C(O)(c3ccc(Cl)cc3)c3cccnc3)ccc21 (centres unmarked) [Example B13, 6-[(4-chlorophenyl)hydroxy-3-pyridinylmethyl]-4-[2-(5-chloro-2-thienyl)ethyl]-1-methyl-2(1H)-quinolinone] | 110
6 | Cn1c(=O)cc(CCc2ccc(Cl)s2)c2cc(C(N)(c3ccc(Cl)cc3)c3cccnc3)ccc21 (centres unmarked) [Example B14, 6-[amino(4-chlorophenyl)-3-pyridinylmethyl]-4-[2-(5-chloro-2-thienyl)ethyl]-1-methyl-2(1H)-quinolinone] | 100

The remaining lines, values ahead:

Row | melting point [°C] | Structure (SMILES)
7 | 200 | Cn1cncc1C(O)(c1ccc(Cl)cc1)c1ccc2c(c1)c(-c1nc(-c3ccccc3)cs1)cc(=O)n2C (centres unmarked) [Example B4, 6-[(4-chlorophenyl)hydroxy(1-methyl-1H-imidazol-5-yl)methyl]-1-methyl-4-(4-phenyl-2-thiazolyl)-2(1H)-quinolinone]
8 | 171 | Cn1cncc1C(c1ccc(Cl)cc1)c1ccc2c(c1)c(-c1nc(-c3ccccc3)cs1)cc(=O)n2C (centres unmarked) [Example B6, 6-[(4-chlorophenyl)(1-methyl-1H-imidazol-5-yl)methyl]-1-methyl-4-(4-phenyl-2-thiazolyl)-2(1H)-quinolinone]
9 | 237 | Cn1cncc1C(N)(c1ccc(Cl)cc1)c1ccc2c(c1)c(-c1nc(-c3ccccc3)cs1)cc(=O)n2C (centres unmarked) [Example B7, 6-[amino(4-chlorophenyl)(1-methyl-1H-imidazol-5-yl)methyl]-1-methyl-4-(4-phenyl-2-thiazolyl)-2(1H)-quinolinone]
10 | 244 | CC(=O)NC(c1ccc(Cl)cc1)(c1ccc2c(c1)c(-c1nc(-c3ccccc3)cs1)cc(=O)n2C)c1cncn1C (centres unmarked) [Example B8, N-[(4-chlorophenyl)[1,2-dihydro-1-methyl-2-oxo-4-(4-phenyl-2-thiazolyl)-6-quinolinyl](1-methyl-1H-imidazol-5-yl)methyl]-acetamide]
11 | 190 | Cn1c(=O)cc(-c2nc(-c3ccccc3)cs2)c2cc(C(c3ccc(Cl)cc3)c3cnc(-c4ccccc4)[nH]3)ccc21 (centres unmarked) [Example B9 (F2), 6-[(4-chlorophenyl)(2-phenyl-1H-imidazol-5-yl)methyl]-1-methyl-4-(4-phenyl-2-thiazolyl)-2(1H)-quinolinone]
